# Experimental data: US20260137790A1, “MIXED VASOPRESSIN RECEPTOR AGONIST-ANTAGONIST FOR MODULATING MEAN ARTERIAL PRESSURE” (FERRING B.V., priority 2022, published 2026)
# Where two headings read alike, the source gives them in different places. Starred links: 1 amine or outer side, 2 acyl side, 3 side chain; linkers in the order of their positions; H or OH if unused. Positions of bridges follow the written chain, without caps; N, C: chain ends. Non-standard residues stand in square brackets, D forms with d. Residues, ends and D or L forms follow the SMILES beside them. Groups on a side chain read outwards from the residue. Chains are numbered I, II in the order given. *: point of attachment. X1 = CC(=O)NCCCC[C@H](NC(=O)CC[C@H](N)C(N)=O)C(=O)*; isoGln = NC(=O)[C@H](CCC(=O)[*:2])N[*:1]; εLys = N[C@@H](CCCCN[*:1])C(=O)[*:2]; Dab = NCC[C@H](N)C(=O)O; PhAc = O=C(Cc1ccccc1)*
# Experiments:
# [1] = SC (bolus) injection of high/low buffer compositions in rats: bioavailability, M1 formation; format: in vivo, rat; details: for bioavailability: rat, in vivo, sc, bioavailability of Compound 1, rats
# [2] = Metabolite M1 formation in healthy rats after IV bolus and SC (bolus) injection; format: in vivo; details: rat
# Excerpt: A similar study in healthy rats was used to evaluate the differences between metabolite formation of Compound 1 after IV bolus and SC (bolus) injection.
# [3] = human, in vivo; for AUC: M1 AUC; for Tmax: M1 tmax
# Description: (§1) The trial comprised two treatment periods, treatment Period 1 and treatment Period 2 (see FIG. 1).
# (§2) The study was conducted in two periods where the treatment in Period 1 was administered as an intravenous infusion, and the treatment in Period 2 was administered as subcutaneous injections. The trial comprised 5 ascending dose panels, each dose panel comprising 8 healthy subjects (6 active, 2 placebo). A new cohort of subjects was used for each dose panel.
# (§3) If no safety concerns arose, as judged by the Investigator, the remaining subjects in that dose group were randomized and treated according to the randomization and protocol in a staggered dosing manner.
# (§4) Treatment period 2: After a resting period of 2-18 days each subject received a once daily subcutaneous dose for 5 days of the same treatment as in Period 1. The dose was selected to prevent the exposure to exceed the intravenous exposure. […] A SRC evaluated the safety and tolerability of the compound after the completion of all subjects in the dose group.
# (§5) The continuation of the same subjects from intravenous to subcutaneous administration was selected to get an as reliable as possible estimate of the bioavailability (F) in the small groups outlined.
# (§6) The intravenous dose to the first dose panel was the lowest dose giving a clear signal of pharmacological activity in the preceding trial. The administration was performed by using a piston-driven syringe auto-infusion pump. The administered volume was recorded for each subject.
# (§7) In Period 2, subjects received a once-daily subcutaneous injection for 5 days of the same treatment as in Period 1 at different locations on the abdomen (Table 5). The subcutaneous doses were selected based on data from a previous trial.
# [4] = in vivo
# Description: as §1, §2, §3, §4, §5, §6, §7
# [5] = tested on: adult male cynomolgus monkeys; assay: Telemetry MAP in healthy monkeys, Compound 1 versus terlipressin; format: in vivo, cynomolgus monkey; details: monkey
# Description: The in-life portion of the study was performed over multiple dosing sessions using six non-naive adult male cynomolgus monkeys. Animals were previously (3-4 weeks before study start) instrumented with indwelling pressure telemetry devices and trained to be restrained in chairs. Animals had access to food and drinking water ad libitum.
# Stock solutions were diluted in saline on the day of administration. Animals with indwelling pressure telemetry devices were trained to be restrained in chairs for 8-h periods.
# On the day of administration, animals were restrained, and telemetric measurements were collected continuously starting ≥2 h before administration. Baseline values of arterial pressure (diastolic and systolic), heart rate, and body temperature were obtained. […].
# The data reported herein were collected over 19 dosing sessions of four animals each, using a total of six monkeys. Animals were repeat dosed in a crossover design with at least one animal receiving vehicle for each round; the animal receiving vehicle was varied between rounds. A 48- to 72-h washout period was used between dosing sessions. Animals were observed by camera for ˜1 h before dosing (covering the baseline period) and up to 3 h after dosing.
# [6] = tested on: methionine/choline-deficient (MCD) diet rats; assay: Methionine/choline-deficient (MCD) diet rat model, MAP and portal pressure; details: for Δ MAP, mean / Δ PP, mean: 100 μg/kg IA
smiles,measurement,setting,value
CC[C@H](C)[C@@H]1NC(=O)[C@H](Cc2ccccc2)NC(=O)[C@@H](N)CSSC[C@@H](C(=O)N2CCC[C@H]2C(=O)N[C@@H](CCNC(=O)[C@@H](N)CCCCNC(=O)[C@H](CCCCNC(C)=O)NC(=O)CC[C@H](NC(=O)[C@H](CCCNC(=N)N)NC(=O)[C@@H]2CCCN2C(=O)[C@H](C)NC(=O)[C@H](CC(N)=O)NC(=O)[C@H](CCC(N)=O)NC(=O)[C@H](Cc2ccccc2)NC(=O)[C@@H](Cc2ccc(OC)cc2)NC(=O)Cc2ccccc2)C(N)=O)C(=O)NCC(N)=O)NC(=O)[C@H](CC(N)=O)NC(=O)[C@H](CCC(N)=O)NC1=O [Compound 1] (I: H-CFIQNCP[Dab]G-NH2 / II: PhAc-[dY](Me)FQNAPR[isoGln]K(Ac)[εLys]; disulfide I:1-I:6; amide I:8-II:C),bioavailability,[1]; buffer about 10 mM,~13%
same,bioavailability,[1]; buffer about 100 mM,~37%
CC[C@H](C)[C@@H]1NC(=O)[C@H](Cc2ccccc2)NC(=O)[C@@H](N)CSSC[C@@H](C(=O)N2CCC[C@H]2C(=O)N[C@@H](CCNC(=O)[C@@H](N)CCCCNC(=O)[C@H](CCCCNC(C)=O)NC(=O)CC[C@H](N)C(N)=O)C(=O)NCC(N)=O)NC(=O)[C@H](CC(N)=O)NC(=O)[C@H](CCC(N)=O)NC1=O [Compound M1] (H-CFIQNCP[Dab]([εLys-X1])G-NH2; disulfide 1-6),Compound 1 converted to M1,[2],80-90%
same,"relative amount of M1 formed, more with 10 mM than with 100 mM buffer",[1]; rats,at least 15%
same,"relative amount of M1 formed, less with high vs lower buffer concentration","[1]; rats, in some cases",about 50%
same,Cmax,"[3]; iv, 0.9 mg, M1 mean Cmax",0.1 to 0.25 ng/mL
same,half-life,"[3]; iv, M1 harmonic mean terminal half-life",~4 h
same,AUC,"[3]; sc, 0.1 mg, geometric mean",2.51 ng·h/mL
same,AUC,"[3]; sc, 0.1 mg, max",3.5 ng·h/mL
same,AUC,"[3]; sc, 0.1 mg, mean",2.6 ng·h/mL
same,AUC,"[3]; sc, 0.1 mg, min",1.71 ng·h/mL
same,Cmax,"[3]; sc, 0.1 mg, M1 Cmax, geometric mean",0.9 ng/mL
same,Cmax,"[3]; sc, 0.1 mg, M1 Cmax, max",1.28 ng/mL
same,Cmax,"[3]; sc, 0.1 mg, M1 Cmax, mean",0.93 ng/mL
same,Cmax,"[3]; sc, 0.1 mg, M1 Cmax, min",0.7 ng/mL
same,half-life,"[3]; sc, 0.1 mg, M1 t1/2, harmonic mean",1.5 h
same,half-life,"[3]; sc, 0.1 mg, M1 t1/2, max",2.1 h
same,half-life,"[3]; sc, 0.1 mg, M1 t1/2, mean",1.6 h
same,half-life,"[3]; sc, 0.1 mg, M1 t1/2, min",1 h
same,Tmax,"[3]; sc, 0.1 mg, max",2 h
same,Tmax,"[3]; sc, 0.1 mg, mean",0.8 h
same,Tmax,"[3]; sc, 0.1 mg, median",0.5 h
same,Tmax,"[3]; sc, 0.1 mg, min",0.3 h
same,AUC,"[3]; sc, 0.3 mg, geometric mean",6.71 ng·h/mL
same,AUC,"[3]; sc, 0.3 mg, max",10.2 ng·h/mL
same,AUC,"[3]; sc, 0.3 mg, mean",7.55 ng·h/mL
same,AUC,"[3]; sc, 0.3 mg, min",3.2 ng·h/mL
same,AUC,"[3]; sc, 0.3 mg, min, max (n 1)",11.3 ng·h/mL
same,Cmax,"[3]; sc, 0.3 mg, M1 Cmax, geometric mean",1.63 ng/mL
same,Cmax,"[3]; sc, 0.3 mg, M1 Cmax, max",2.93 ng/mL
same,Cmax,"[3]; sc, 0.3 mg, M1 Cmax, mean",2.01 ng/mL
same,Cmax,"[3]; sc, 0.3 mg, M1 Cmax, min",0.6 ng/mL
same,half-life,"[3]; sc, 0.3 mg, M1 harmonic mean terminal half-life",1.5 to 2 h
same,half-life,"[3]; sc, 0.3 mg, M1 t1/2, harmonic mean",1.9 h
same,half-life,"[3]; sc, 0.3 mg, M1 t1/2, max",2.4 h
same,half-life,"[3]; sc, 0.3 mg, M1 t1/2, mean",2 h
same,half-life,"[3]; sc, 0.3 mg, M1 t1/2, min",1.5 h
same,half-life,"[3]; sc, 0.3 mg, M1 t1/2, min, max (n 1)",2.1 h
same,Tmax,"[3]; sc, 0.3 mg",0.5 to 1.5 h
same,Tmax,"[3]; sc, 0.3 mg, max",1.1 h
same,Tmax,"[3]; sc, 0.3 mg, mean",0.8 h
same,Tmax,"[3]; sc, 0.3 mg, median",1 h
same,Tmax,"[3]; sc, 0.3 mg, min",0.5 h
same,M1 time of Cmax,"[4]; human, iv",approx. 5 hours
same,"M1 AUC, geometric mean","[4]; human, sc, 0.1 mg",2.68 ng·h/mL
same,"M1 AUC, max","[4]; human, sc, 0.1 mg",3.10 ng·h/mL
same,"M1 AUC, mean","[4]; human, sc, 0.1 mg",2.70 ng·h/mL
same,"M1 AUC, min","[4]; human, sc, 0.1 mg",2.39; h*ng/mL
same,"M1 Cmax, geometric mean","[4]; human, sc, 0.1 mg",0.98 ng/mL
same,"M1 Cmax, max","[4]; human, sc, 0.1 mg",1.27 ng/mL
same,"M1 Cmax, mean","[4]; human, sc, 0.1 mg",1.01 ng/mL
same,"M1 Cmax, min","[4]; human, sc, 0.1 mg",0.74; ng/mL
same,"M1 t1/2, harmonic mean","[4]; human, sc, 0.1 mg",1.4 h
same,"M1 t1/2, max","[4]; human, sc, 0.1 mg",2.2 h
same,"M1 t1/2, mean","[4]; human, sc, 0.1 mg",1.6 h
same,"M1 t1/2, min","[4]; human, sc, 0.1 mg",0.8; h
same,"M1 tmax, min","[4]; human, sc, 0.1 mg",0.5; h
same,"M1 Cmax, geometric mean","[4]; human, sc, 0.3 mg",1.76 ng/mL
same,"M1 Cmax, max","[4]; human, sc, 0.3 mg",3.62 ng/mL
same,"M1 Cmax, mean","[4]; human, sc, 0.3 mg",2.24 ng/mL
same,"M1 Cmax, min","[4]; human, sc, 0.3 mg",0.86; ng/mL
same,"M1 t1/2, mean","[4]; human, sc, 0.3 mg",2.1 h
same,"M1 tmax, mean","[4]; human, sc, 0.3 mg",1.5 h
same,"M1 tmax, median","[4]; human, sc, 0.3 mg",1.5 h
same,"M1 tmax, min","[4]; human, sc, 0.3 mg",1.0; h
same,formation of M1,[4]; iv,0-15%
NCCCC[C@H](NC(=O)[C@@H]1CCCN1C(=O)[C@@H]1CSSC[C@H](NC(=O)CNC(=O)CNC(=O)CN)C(=O)N[C@@H](Cc2ccc(O)cc2)C(=O)N[C@@H](Cc2ccccc2)C(=O)N[C@@H](CCC(N)=O)C(=O)N[C@@H](CC(N)=O)C(=O)N1)C(=O)NCC(N)=O [Terlipressin] (H-GGGCYFQNCPKG-NH2; disulfide 4-9),average increase in MAP between 30 min and 5 h,[5]; IV bolus 0.03 mg/kg,6.0 mmHg
same,maximum MAP increase from baseline,[5]; IV bolus 0.03 mg/kg,29.6±3.6 mmHg
same,average increase in MAP between 30 min and 5 h,[5]; IV bolus 0.09 mg/kg,5.8 mmHg
same,maximum MAP increase from baseline,[5]; IV bolus 0.09 mg/kg,29.9±6.2 mmHg
same,average increase in MAP between 30 min and 5 h,[5]; IV bolus 0.17 mg/kg,14.6 mmHg
same,maximum MAP increase from baseline,[5]; IV bolus 0.17 mg/kg,50.8±5.6 mmHg
same,average increase in MAP between 30 min and 5 h,[5]; IV bolus 0.34 mg/kg,14.7 mmHg
same,maximum MAP increase from baseline,[5]; IV bolus 0.34 mg/kg,41.2±7.5 mmHg
same,time of maximum MAP increase,"[5]; IV bolus, across groups",5 to 30 min
same,time by which Δ MAP was negligible,"[5]; IV bolus, all groups",150 min
same,"Δ MAP, mean",[6]; 0 min,0.0 mmHg
same,"Δ PP, mean",[6]; 0 min,0.0 mmHg
same,"Δ MAP, mean",[6]; 1 min,6.1 mmHg
same,"Δ PP, mean",[6]; 1 min,−1.5 mmHg
same,"Δ MAP, mean",[6]; 2 min,10.8 mmHg
same,"Δ PP, mean",[6]; 2 min,−2.1 mmHg
same,"Δ MAP, mean",[6]; 3 min,18.1 mmHg
same,"Δ PP, mean",[6]; 3 min,−2.3 mmHg
same,"Δ MAP, mean",[6]; 5 min,26.3 mmHg
same,"Δ PP, mean",[6]; 5 min,−2.4 mmHg
same,"Δ MAP, mean",[6]; 7 min,30.1 mmHg
same,"Δ PP, mean",[6]; 7 min,−2.5 mmHg
same,"Δ MAP, mean",[6]; 10 min,32.0 mmHg
same,"Δ PP, mean",[6]; 10 min,−2.4 mmHg
same,"Δ MAP, mean",[6]; 15 min,32.9 mmHg
same,"Δ PP, mean",[6]; 15 min,−2.5 mmHg
same,"Δ MAP, mean",[6]; 20 min,33.5 mmHg
same,"Δ PP, mean",[6]; 20 min,−2.6 mmHg
same,"Δ MAP, mean",[6]; 30 min,31.7 mmHg
same,"Δ PP, mean",[6]; 30 min,−2.5 mmHg
same,"Δ MAP, mean",[6]; 60 min,13.3 mmHg
same,"Δ PP, mean",[6]; 60 min,−2.8 mmHg
same,"Δ MAP, mean",[6]; 90 min,5.2 mmHg
same,"Δ PP, mean",[6]; 90 min,−0.8 mmHg
same,highest observed absolute MAP,[6]; 100 μg/kg intra-arterial,116.6±4.1 mmHg
same,maximum ΔMAP,[6]; 100 μg/kg intra-arterial,33.5±2.6 mmHg
same,maximum ΔPP,[6]; 100 μg/kg intra-arterial,−2.8±0.8 mmHg
